Consider 32 compounds from patent publication US9073974B2, “RGD-containing cyclic peptides” (The Regents of the University of California, priority 2009, dated 2015).

The assay concerns the target αvβ3 integrin (Homo sapiens, UniProt P05106+P06756). The experiment in a line: Inhibition of biotinylated LXW7 binding to αvβ3-K562 cells (flow cytometry). Also noted: expressed in transfected cells; host or cells: K562 (gift of Dr. Yoshikazu Takada, UC Davis). To be noted: LXW9-92: inhibiting the binding of biotinylated LXW7 against αvβ3-K562 cells. The procedure: The apparent IC50 were calculated using Graph Prism software (≦www.graphpad.com≧).
The samples were analyzed with Coulter XL-MCL flow cytometry. The histogram and mean fluorescence intensity (MFI) were determined. The apparent Kd, IC50 were calculated using Graph Prism software (≦www.graphpad.com≧).

Numbered stars: 1 amine (or outer) side, 2 acyl side, 3 side chain; on linkers, the order of the positions; unused ones are H or OH. Bridge positions count the residues as written; N and C are the ends. Square brackets hold non-standard residues; d marks the D form. Peptide text beside a SMILES is read from it. * marks the point of attachment. Pro(5R-Ph) = O=C(O)[C@@H]1CC[C@H](c2ccccc2)N1; N(CH2CH2COOH)Gly = O=C(O)CCNCC(=O)O; X2 = O=C(C1(N[*:1])CCC(O)CC1)[*:2]; dPen = CC(C)(S)[C@@H](N)C(=O)O; dTle = CC(C)(C)[C@@H](N)C(=O)O; Carboxymethyl = O=C(O)C*; βAla = NCCC(=O)O; Sar = CNCC(=O)O

Sequence of αvβ3 integrin (P06756 31-889 limits assumed): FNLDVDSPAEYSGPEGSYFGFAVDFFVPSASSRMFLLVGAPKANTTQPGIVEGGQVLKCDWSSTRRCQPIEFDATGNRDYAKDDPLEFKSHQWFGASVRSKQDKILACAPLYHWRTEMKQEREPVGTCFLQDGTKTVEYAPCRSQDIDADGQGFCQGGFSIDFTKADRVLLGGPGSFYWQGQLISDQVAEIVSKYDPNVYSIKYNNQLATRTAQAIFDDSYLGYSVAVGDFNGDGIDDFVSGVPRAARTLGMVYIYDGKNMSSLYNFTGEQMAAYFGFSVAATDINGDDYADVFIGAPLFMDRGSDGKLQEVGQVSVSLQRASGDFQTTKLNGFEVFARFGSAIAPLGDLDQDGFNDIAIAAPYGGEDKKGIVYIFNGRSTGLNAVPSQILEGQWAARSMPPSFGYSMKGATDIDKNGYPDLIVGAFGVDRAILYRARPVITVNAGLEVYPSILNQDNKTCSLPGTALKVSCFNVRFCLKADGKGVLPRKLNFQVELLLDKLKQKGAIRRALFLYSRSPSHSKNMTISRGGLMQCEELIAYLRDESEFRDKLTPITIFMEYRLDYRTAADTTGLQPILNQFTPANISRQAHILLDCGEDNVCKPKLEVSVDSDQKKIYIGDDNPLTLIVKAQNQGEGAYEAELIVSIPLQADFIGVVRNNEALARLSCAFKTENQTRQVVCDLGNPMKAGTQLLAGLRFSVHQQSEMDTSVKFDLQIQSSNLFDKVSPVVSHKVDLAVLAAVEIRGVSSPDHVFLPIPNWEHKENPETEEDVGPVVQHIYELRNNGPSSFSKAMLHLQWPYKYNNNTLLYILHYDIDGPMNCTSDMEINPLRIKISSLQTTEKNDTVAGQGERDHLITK
Sequence of αvβ3 integrin (P06756 891-1048 partner limits assumed): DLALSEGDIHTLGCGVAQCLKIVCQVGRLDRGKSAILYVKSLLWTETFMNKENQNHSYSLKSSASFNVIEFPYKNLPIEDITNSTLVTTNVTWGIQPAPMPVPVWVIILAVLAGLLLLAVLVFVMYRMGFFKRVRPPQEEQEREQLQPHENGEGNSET
Sequence of αvβ3 integrin (P05106 27-788): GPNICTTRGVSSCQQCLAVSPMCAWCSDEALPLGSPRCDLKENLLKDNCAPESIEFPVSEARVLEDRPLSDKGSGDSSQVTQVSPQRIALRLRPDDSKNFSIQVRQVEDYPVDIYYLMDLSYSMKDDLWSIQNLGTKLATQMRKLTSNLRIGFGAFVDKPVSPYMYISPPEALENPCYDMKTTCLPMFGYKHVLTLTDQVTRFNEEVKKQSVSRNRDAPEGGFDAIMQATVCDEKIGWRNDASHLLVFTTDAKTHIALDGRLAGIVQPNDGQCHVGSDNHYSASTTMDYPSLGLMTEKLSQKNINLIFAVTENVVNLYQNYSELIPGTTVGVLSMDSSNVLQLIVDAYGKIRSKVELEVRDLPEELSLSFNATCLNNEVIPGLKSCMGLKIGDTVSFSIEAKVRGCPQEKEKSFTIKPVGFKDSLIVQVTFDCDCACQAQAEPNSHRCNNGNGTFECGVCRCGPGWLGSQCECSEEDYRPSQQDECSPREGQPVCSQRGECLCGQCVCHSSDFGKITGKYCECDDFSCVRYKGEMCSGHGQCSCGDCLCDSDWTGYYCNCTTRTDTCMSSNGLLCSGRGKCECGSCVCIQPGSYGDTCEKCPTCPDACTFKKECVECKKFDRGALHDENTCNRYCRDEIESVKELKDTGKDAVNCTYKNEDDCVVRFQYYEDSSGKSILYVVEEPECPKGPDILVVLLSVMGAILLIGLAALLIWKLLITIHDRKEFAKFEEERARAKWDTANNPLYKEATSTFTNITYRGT

`C=CC[C@H]1NC(=O)[C@@H](CC(=O)O)NC(=O)[C@H](CC(=O)O)NC(=O)CNC(=O)[C@H](CCCNC(=N)N)NC(=O)CNC(=O)[C@H](N)CSSC[C@H](C(N)=O)NC1=O` [LWX16, cGRGDd-DAgl-c] gave an IC50 (class symbols) of 1 to 10 µM. In the case of `C#CC[C@H]1NC(=O)[C@@H](CC(=O)O)NC(=O)[C@H](CC(=O)O)NC(=O)CNC(=O)[C@H](CCCNC(=N)N)NC(=O)CNC(=O)[C@H](N)CSSC[C@H](C(N)=O)NC1=O` [LWX17, cGRGDd-DPra-c], the IC50 (class symbols) lay within 1 to 10 µM. The same measure, in the same setting: next, `CC(C)[C@H]1NC(=O)[C@@H](CC(=O)O)NC(=O)[C@H](CC(=O)O)NC(=O)CNC(=O)[C@H](CCCNC(=N)N)NC(=O)CNC(=O)[C@@H](N)CSSC[C@H](C(N)=O)NC1=O` [LXW9, CGRGDdvc] (H-CGRGD[dD][dV][dC]-NH2; disulfide 1-8): 1 to 10 µM. The same measure, in the same setting: next, `CC(C)[C@H]1NC(=O)[C@@H](CC(=O)O)NC(=O)[C@H](CC(=O)O)NC(=O)CNC(=O)[C@H](CCCNC(=N)N)NC(=O)CNC(=O)[C@H](N)CSSC[C@@H](C(N)=O)NC1=O` [LXW10, cGRGDdvC] (H-[dC]GRGD[dD][dV]C-NH2; disulfide 1-8): 1 to 10 µM. On to `CC(C)[C@H]1NC(=O)[C@@H](CC(=O)O)NC(=O)[C@H](CC(=O)O)NC(=O)CNC(=O)[C@H](CCCNC(=N)N)NC(=O)CNC(=O)[C@@H](N)CSSC[C@@H](C(N)=O)NC1=O` [LXW11, CGRGDdvC] (H-CGRGD[dD][dV]C-NH2; disulfide 1-8), for which the IC50 (LXW7 as internal reference) was more than 20 µM.

The compound `CC(=O)N[C@@H]1CSSC[C@H](C(N)=O)NC(=O)[C@@H](C(C)C)NC(=O)[C@@H](CC(=O)O)NC(=O)[C@H](CC(=O)O)NC(=O)CNC(=O)[C@H](CCCNC(=N)N)NC(=O)CNC1=O` [LXW12, Acetyl-cGRGDdvc] (Ac-[dC]GRGD[dD][dV][dC]-NH2; disulfide 1-8) displayed an IC50 (class symbols) of less than 1 µM.

`CC(C)[C@H]1NC(=O)[C@@H](CC(=O)O)NC(=O)[C@H](CC(=O)O)NC(=O)CNC(=O)[C@H](CCCNC(=N)N)NC(=O)[C@@H](C)NC(=O)[C@H](N)CSSC[C@H](C(N)=O)NC1=O` [LXW13, caRGDdvc] (H-[dC][dA]RGD[dD][dV][dC]-NH2; disulfide 1-8) had an IC50 (class symbols) of 1 to 10 µM. Compound `CC(C)[C@H]1NC(=O)[C@@H](CC(=O)O)NC(=O)[C@H](CC(=O)O)NC(=O)CNC(=O)[C@H](CCCNC(=N)N)NC(=O)CN(C)C(=O)[C@H](N)CSSC[C@H](C(N)=O)NC1=O` [LXW14, c-Sar-RGDdvc] (H-[dC][Sar]RGD[dD][dV][dC]-NH2; disulfide 1-8) returned an IC50 (class symbols) of 1 to 10 µM.

As to `CC(C)[C@H]1NC(=O)[C@@H](CC(=O)O)NC(=O)[C@H](CC(=O)O)NC(=O)CNC(=O)[C@H](CCCNC(=N)N)NC(=O)CCNC(=O)[C@H](N)CSSC[C@H](C(N)=O)NC1=O` [LXW15, c-β-alanine-RGDdvc] (H-[dC][βAla]RGD[dD][dV][dC]-NH2; disulfide 1-8), for the setting “class symbols”, the IC50 lay within 1 to 10 µM. Same read-out and setting: with `CC(C)(C)[C@H]1NC(=O)[C@@H](CC(=O)O)NC(=O)[C@H](CC(=O)O)NC(=O)CNC(=O)[C@H](CCCNC(=N)N)NC(=O)CNC(=O)[C@H](N)CSSC[C@H](C(N)=O)NC1=O` [LXW18, cGRGDd-DBug-c] the figure was less than 1 µM; with `CC(C)[C@H]1NC(=O)[C@@H](CC(=O)O)NC(=O)[C@H](CC(=O)O)NC(=O)CNC(=O)[C@H](CCCNC(=N)N)NC(=O)CNC(=O)[C@H](N)C(C)(C)SSC(C)(C)[C@H](C(N)=O)NC1=O` [LXW19, DPen-GRGDdv-DPen] (H-[dPen]GRGD[dD][dV][dPen]-NH2; disulfide 1-8), 1 to 10 µM; with `CC(C)[C@H]1NC(=O)[C@@H](CC(=O)O)NC(=O)[C@H](CC(=O)O)NC(=O)CNC(=O)[C@H](CCCNC(=N)N)NC(=O)CNC(=O)[C@H](N)C(C)(C)SSC[C@H](C(N)=O)NC1=O` [LXW20, DPen-GRGDdvc] (H-[dPen]GRGD[dD][dV][dC]-NH2; disulfide 1-8), 1 to 10 µM.

As for `CC(C)[C@H]1NC(=O)[C@@H](CC(=O)O)NC(=O)[C@H](CC(=O)O)NC(=O)CNC(=O)[C@H](CCCNC(=N)N)NC(=O)CNC(=O)[C@H](N)CSSC(C)(C)[C@H](C(N)=O)NC1=O` [LXW21, cGRGDdv-DPen] (H-[dC]GRGD[dD][dV][dPen]-NH2; disulfide 1-8), the IC50 (class symbols) was in the range of 1 to 10 µM. Same read-out and setting: with `CC(C)[C@@H]1C(=O)N[C@@H](C(N)=O)CSSC[C@@H](N)C(=O)NCC(=O)N[C@@H](CCCNC(=N)N)C(=O)NCC(=O)N[C@@H](CC(=O)O)C(=O)N[C@H](CC(=O)O)C(=O)N1C` [LXW22, cGRGDd-D(NMe)Val-c] the figure was less than 1 µM; with `CC(C)[C@@]1(C)NC(=O)[C@@H](CC(=O)O)NC(=O)[C@H](CC(=O)O)NC(=O)CNC(=O)[C@H](CCCNC(=N)N)NC(=O)CNC(=O)[C@H](N)CSSC[C@H](C(N)=O)NC1=O` [LXW23, cGRGDd-D(CaMe)Val-c], more than 10 µM.

The compound `CC[C@H]1NC(=O)[C@@H](CC(=O)O)NC(=O)[C@H](CC(=O)O)NC(=O)CNC(=O)[C@H](CCCNC(=N)N)NC(=O)CNC(=O)[C@H](N)CSSC[C@H](C(N)=O)NC1=O` [LXW25, cGRGDd-DAbu-c] displayed an IC50 (class symbols) of less than 1 µM.

In turn, `CC[C@@H](C)[C@H]1NC(=O)[C@@H](CC(=O)O)NC(=O)[C@H](CC(=O)O)NC(=O)CNC(=O)[C@H](CCCNC(=N)N)NC(=O)CNC(=O)[C@H](N)CSSC[C@H](C(N)=O)NC1=O` [LXW26, cGRGDdic] (H-[dC]GRGD[dD][dI][dC]-NH2; disulfide 1-8) returned an IC50 (class symbols) of 1 to 10 µM. `CC[C@@H](C)[C@H]1NC(=O)C2(CCC(O)CC2)NC(=O)[C@H](CC(=O)O)NC(=O)CNC(=O)[C@H](CCCNC(=N)N)NC(=O)CN(C)C(=O)[C@H](N)CSSC[C@H](C(N)=O)NC1=O` (some centres unmarked) [LXW32, c-Sar-RGD-Ahch-i c] (H-[dC][Sar]RGD[X2][dI][dC]-NH2; disulfide 1-8): the IC50 (LXW7 as internal reference) was more than 20 µM. On the same count and under the same terms, with `CN1CC(=O)N[C@@H](CCCNC(=N)N)C(=O)NCC(=O)N[C@@H](CC(=O)O)C(=O)NC2(CCC(O)CC2)C(=O)N[C@H](C(C)(C)C)C(=O)N[C@@H](C(N)=O)CSSC[C@@H](N)C1=O` (some centres unmarked) [LXW33, c-Sar-RGD-Ahch-DBug-c] (H-[dC][Sar]RGD[X2][dTle][dC]-NH2; disulfide 1-8) the figure was more than 20 µM.

In the case of `C=CC[C@H]1NC(=O)[C@@H](CC(=O)O)NC(=O)[C@H](CC(=O)O)NC(=O)CNC(=O)[C@H](CCCNC(=N)N)NC(=O)CNC(=O)[C@H](N)CSSC[C@@H](C(N)=O)NC1=O` [LXW34, cGRGDd-DAgl-C], the IC50 (LXW7 as internal reference) was more than 20 µM.

For the compound `C#CC[C@H]1NC(=O)[C@@H](CC(=O)O)NC(=O)[C@H](CC(=O)O)NC(=O)CNC(=O)[C@H](CCCNC(=N)N)NC(=O)CN(C)C(=O)[C@@H](N)CSSC[C@@H](C(N)=O)NC1=O` [LXW35, C-Sar-RGDd-DPra-C], the IC50 (class symbols) was more than 10 µM. The compound `CN1CC(=O)N[C@@H](CCCNC(=N)N)C(=O)NCC(=O)N[C@@H](CC(=O)O)C(=O)N[C@H](CC(=O)O)C(=O)NC2(CCOCC2)C(=O)N[C@H](C(N)=O)CSSC[C@H](N)C1=O` [LXW36, C-Sar-RGDd-Actp-C] yielded an IC50 (LXW7 as internal reference) of more than 20 µM. Take `C#CC[C@H]1NC(=O)[C@@H](CC(=O)O)NC(=O)[C@H](CC(=O)O)NC(=O)CNC(=O)[C@H](CCCNC(=N)N)NC(=O)CN(C)C(=O)[C@H](N)CSSC[C@@H](C(N)=O)NC1=O` [LXW37, c-Sar-RGDd-DPra-C]: under “class symbols”, the IC50 is more than 10 µM. On the same count and under the same terms, next, `N=C(N)NCCC[C@@H]1NC(=O)CNC(=O)[C@@H](N)CSSC[C@@H](C(N)=O)NC(=O)[C@@H](Cc2cscn2)NC(=O)[C@@H](CC(=O)O)NC(=O)[C@H](CC(=O)O)NC(=O)CNC1=O` [LXW39, CGRGDd-DTha-C]: more than 10 µM; `C#CC[C@H]1NC(=O)[C@@H](CC(=O)O)NC(=O)[C@H](CC(=O)O)NC(=O)CNC(=O)[C@H](CCCNC(=N)N)NC(=O)CNC(=O)[C@H](N)CSSC[C@@H](C(N)=O)NC1=O` [LXW40, cGRGDd-DPra-C]: 1 to 10 µM. Regarding `N=C(N)NCCC[C@@H]1NC(=O)CNC(=O)[C@H](N)CSSC[C@@H](C(N)=O)NC(=O)C2(CCOCC2)NC(=O)[C@@H](CC(=O)O)NC(=O)[C@H](CC(=O)O)NC(=O)CNC1=O` [LXW41, cGRGDd-Actp-C], the IC50 (LXW7 as internal reference) was more than 20 µM. The same measure, in the same setting: with `CC[C@@H](C)[C@H]1NC(=O)C2(CCC(O)CC2)NC(=O)[C@H](CC(=O)O)NC(=O)CNC(=O)[C@H](CCCNC(=N)N)NC(=O)CN(C)C(=O)[C@H](N)CSSC[C@@H](C(N)=O)NC1=O` (some centres unmarked) [LXW42, c-Sar-RGD-Ahch-iC] (H-[dC][Sar]RGD[X2][dI]C-NH2; disulfide 1-8) the figure was more than 20 µM; with `CN1CC(=O)N[C@@H](CCCNC(=N)N)C(=O)NCC(=O)N[C@@H](CC(=O)O)C(=O)N[C@@H](Cc2ccc(OCC(=O)O)cc2)C(=O)N[C@H](CC(=O)O)C(=O)N[C@H](C(N)=O)CSSC[C@H](N)C1=O` [LXW44, C-Sar-RGD-Bmp-dC] (H-C[Sar]RGDY(Carboxymethyl)[dD]C-NH2; disulfide 1-8), more than 20 µM; with `N=C(N)NCCC[C@@H]1NC(=O)CNC(=O)[C@@H](N)CSSC[C@H](C(N)=O)NC(=O)[C@@H]2CC[C@H](c3ccccc3)N2C(=O)[C@@H](CCC(=O)O)NC(=O)[C@H](CC(=O)O)NC(=O)CNC1=O` [LXW45, CGRGDe-Ppca-c] (H-CGRGD[dE][Pro(5R-Ph)][dC]-NH2; disulfide 1-8), more than 20 µM. Take `N=C(N)NCCC[C@@H]1NC(=O)CNC(=O)[C@@H](N)CSSC[C@H](C(N)=O)NC(=O)[C@@H]2CC[C@H](c3ccccc3)N2C(=O)CN(CCC(=O)O)C(=O)[C@H](CC(=O)O)NC(=O)CNC1=O` [LXW46, CGRGD-Nglu-Ppca-c] (H-CGRGD[N(CH2CH2COOH)Gly][Pro(5R-Ph)][dC]-NH2; disulfide 1-8): the IC50 (LXW7 as internal reference) is more than 20 µM.

Compound `N=C(N)NCCC[C@@H]1NC(=O)CNC(=O)[C@@H](N)CSSC[C@@H](C(N)=O)NC(=O)[C@@H](Cc2cccc3ccccc23)NC(=O)[C@@H](CC(=O)O)NC(=O)[C@H](CC(=O)O)NC(=O)CNC1=O` [LXW47, CGRGDd-DNal1-C] returned an IC50 (class symbols) of 1 to 10 µM. The same measure, in the same setting: next, `N=C(N)NCCC[C@@H]1NC(=O)CNC(=O)[C@H](N)CSSC[C@H](C(N)=O)NC(=O)[C@@H](Cc2csc3ccccc23)NC(=O)[C@@H](CC(=O)O)NC(=O)[C@H](CC(=O)O)NC(=O)CNC1=O` [LXW48, cGRGDd-DBta-c]: less than 1 µM.
